Molecular target: Retinol-binding protein 4 (Homo sapiens, UniProt P02753)
Assay: Displacement of [3H]-all-trans-retinol from biotinylated human urine derived RBP4 measured after 16 hrs by scintillation proximity assay

For Cc1cc(C(=O)O)nc(N2CCC(COc3ccccc3C(F)(F)F)C2)n1 (stereo unspecified), the IC50 was 80 nM.

From BindingDB's records for doi:10.1021/acs.jmedchem.0c00996 (Albany College of Pharmacy and Health Sciences, 2020)
